Reference: patent publication US5925372A, “Mixed solvent mutually enhanced transdermal therapeutic system” (Novartis Corporation, priority 1991, dated 1999)
Read-outs that look alike come from different tables or passages of the source.

Legend:
[1] = Method: FIG. 2 is a graph of the steady-state flux of ethanol across human epidermis versus the volume fraction of ethanol in the donor solution.
This Example is based on FIGS. 1-3. […] The reservoir contains 1.7 ml of ethanol, 0.3 ml water, 200 mg of progesterone as the drug, and 2% Klucel as a gelling agent. […] A volume fraction of 0.85 is chosen to allow for the back flux of water and depletion of ethanol during the use of the system.

[2] = Fluxes through ethylene vinyl acetate membranes (Table 1); details: for ^3 H2 O flux through ethylene vinyl acetate membrane: ethanol:water (7:3) reservoir; for Nitroglycerin flux through ethylene vinyl acetate membrane: ethanol:water (7:3) reservoir saturated with nitroglycerin on lactose
Method: (§1) For convenience purposes, this is measured by placing a portion of membrane or membrane/adhesive laminate in a diffusion cell and filling one side with a 70%, aqueous ethanol. After a period of time the amounts of water and alkanol that have crossed the membrane are determined. Typically, when measuring ethanol flux, the receiver side is water. When measuring water flux, either a) the donor side is ^3 H2 O and the receiver side is water or b) the donor side is water and the receiver side is air.

[3] = commercial estradiol system, cited from earlier work
[4] = cited from earlier work
[5] = cited from earlier work; remark: listed apart in the source
[6] = Water and ethanol flux through the combined membrane adhesive laminate; details: 32.8% vinyl acetate membrane plus 2 mil silicone face adhesive
Method: as §1
(§2) In current-marketed transdermal devices, the adhesive is typically between 1.5 and 3 mils thick and is on the face of the device.

[7] = Steady-state flux of progesterone across the epidermis versus volume fraction of ethanol in donor (FIG. 1); assay type: in vitro ADME
Excerpt: (§3) This Example is based on FIGS. 1-3.

[8] = Flux of progesterone across membrane and adhesive on human epidermis (FIG. 3); assay type: in vitro ADME; details: 1 mil polyurethane membrane and silicone adhesive
Excerpt: FIG. 3 is a graph of the flux of progesterone across a membrane and adhesive on human epidermis versus volume fraction of ethanol in the aqueous ethanol reservoir.
as §3

[9] = assay type: in vitro ADME, human; details: 0.7 volume fraction of ethanol; active agent at saturation
Excerpt: FIG. 4 is a graph of the flux of (±) trans-1,3,4,4a,5,10b-hexahydro-4-propyl-2H-[1]benzopyrano[3,4-b]pyridin-9-ol monohydrochloride, an ionizable drug which is a dopamine autoreceptor agonist, across human epidermis from ethanol: water (7:3) versus pH of that aqueous ethanol solution. In aqueous solutions, the drug is […] charged below pH 6.5.
This Example is based on FIG. 4 in which the dopamine autoreceptor agonist, (±)trans-1,3,4,4a,5,10b-hexahydro-4-propyl-2H-[1]benzopyrano[3,4-b]pyridin-9-ol, an ionizable drug, permeates skin. For this drug the optimal pH of an ethanol:water donor which is 0.7 volume fraction of ethanol is in the range of 4. A microporous membrane such as a microporous polypropylene and a silicone adhesive may be used. The active agent is present at saturation.

[10] = cited from earlier work; remark: listed apart in the source
[11] = Charge state in aqueous solutions; assay type: physicochemical
[12] = cited from earlier work; remark: listed apart in the source
[13] = Flux of nitroglycerin and ethanol through epidermis, with and without membrane (FIGS. 5 and 6); details: FIG. 6
Excerpt: FIG. 5 is a graph of the flux of nitroglycerin across epidermis versus the volume fraction of ethanol in the aqueous ethanol reservoir.
FIG. 6 is a graph of the flux of nitroglycerin versus the flux of ethanol for two different membrane thicknesses and epidermis as compared to epidermis alone.
These Examples are based on FIGS. 5 and 6. A 0.65 volume fraction of ethanol is used in the reservoir. The systems have a 10 cm^2 surface area, and use a polyester impermeable backing, a polyurethane membrane, and a silicone adhesive. […] Above a volume fraction of 0.8 ethanol, a safety hazard or transportation law infraction may be incurred with nitroglycerin unless the nitroglycerin is kept below 10%.

[14] = Fluxes of nitroglycerin through skin and ethylene vinyl acetate membranes (Table 2); assay type: in vitro ADME
[15] = Fluxes of nitroglycerin and ethanol through 32.8% vinyl acetate membrane plus skin with and without silicone face adhesive (Table 3)
Excerpt: as §2

For CCO [Ethanol, ethanol], the “Volume fraction of ethanol at which ethanol flux through skin is optimized” value [1] is given as 0.4-0.85 volume fraction of ethanol, the “Dependence of permeation on vinyl acetate content” value [2] is given as “increase with vinyl acetate content” and the “Ethanol permeability of rate-limiting membrane” value ([3]; neat ethanol gel reservoir) is given as roughly 400 mcg/cm^2 /hr.
In the case of C[C@]12CC[C@@H]3c4ccc(O)cc4CC[C@H]3[C@@H]1CC[C@@H]2O [estradiol], the “Flux of estradiol through hairless mouse skin, neat versus aqueous ethanol” value [4] is listed as “neat ethanol increases skin permeation better than aqueous ethanol” and the “Skin permeation of estradiol from neat ethanol versus aqueous ethanol donor solutions” value [5] is listed as “skin permeation from neat ethanol is as good or better than from aqueous ethanol donor solutions”.
In the case of [3H]O[3H] [^3 H2 O, tritiated water], the “Dependence of permeation on vinyl acetate content” value ([2]; until reservoir composition of ethanol and water is delivered to skin surface) is reported as “increase with vinyl acetate content”, the “^3 H2 O flux through ethylene vinyl acetate membrane” value ([2]; vinyl acetate content 9%) is reported as 0.5 mg/h and the “^3 H2 O flux through ethylene vinyl acetate membrane” value ([2]; vinyl acetate content 18%) is reported as 4 ± 0.3 mg/h. For the same compound, the “^3 H2 O flux through ethylene vinyl acetate membrane” value ([2]; vinyl acetate content 28%) was 17 ± 3 mg/h, the “^3 H2 O flux through ethylene vinyl acetate membrane” value ([2]; vinyl acetate content 40%) was 63 ± 9 mg/h and the “Tritiated water flux through combined membrane adhesive laminate” value [6] was “smaller than the range disclosed by this invention”.
In the case of CC(=O)[C@H]1CC[C@H]2[C@@H]3CCC4=CC(=O)CC[C@]4(C)[C@H]3CC[C@]12C [progesterone], the “Progesterone flux across epidermis from optimized aqueous ethanol reservoir” value ([7]; compared to both neat water and neat ethanol) is reported as “large increase in the flux”, the “Volume fraction of ethanol at which progesterone flux through skin is optimized” value ([7]; not including the drug or gelling agent) is reported as 0.4-0.85 volume fraction of ethanol and the “Volume fraction of ethanol at optimum of skin permeation with membrane and adhesive” value [8] is reported as ~0.7 volume fraction of ethanol.
For CCCN1CCC[C@@H]2c3cc(O)ccc3OC[C@H]21 (racemic) [(±)trans-1,3,4,4a,5,10b-hexahydro-4-propyl-2H-[1]benzopyrano[3,4-b]pyridin-9-ol], the “Optimal pH of ethanol:water donor for skin permeation” value [9] was roughly 4.
For C#C[C@]1(O)CC[C@H]2[C@@H]3CCC4=CC(=O)CC[C@@H]4[C@H]3CC[C@@]21CC [levonorgestrel], the “Flux of levonorgestrel through rat skin, neat versus aqueous ethanol” value [10] is listed as “neat ethanol increases skin permeation better than aqueous ethanol”.
In the case of O [water], the “Water permeability of rate-limiting membrane” value [3] is given as “relatively impermeable to water”.
With CCCN1CCC[C@@H]2c3cc(O)ccc3OC[C@H]21.Cl (racemic) [(±) trans-1,3,4,4a,5,10b-hexahydro-4-propyl-2H-[1]benzopyrano[3,4-b]pyridin-9-ol monohydrochloride] the “pH below which the drug is negatively charged in aqueous solutions” value [11] was less than 6.5.
In the case of O=C(O)c1ccccc1O [salicylic acid], the “Flux of salicylic acid through human skin, neat versus aqueous ethanol” value [12] is given as “neat ethanol increases skin permeation better than aqueous ethanol”.
With O=[N+]([O-])OCC(CO[N+](=O)[O-])O[N+](=O)[O-] [Nitroglycerin, nitroglycerin] the “Relation of nitroglycerin flux versus ethanol flux through skin and membrane adhesive laminates” value [13] was “The nitroglycerin follows the ethanol through skin”, the “Nitroglycerin flux through ethylene vinyl acetate membrane” value ([2]; vinyl acetate content 9%) was 2.4 ± 0.3 mg/h and the “Nitroglycerin flux through ethylene vinyl acetate membrane” value ([2]; vinyl acetate content 18%) was 5 ± 0.7 mg/h. For the same compound, the “Nitroglycerin flux through ethylene vinyl acetate membrane” value ([2]; vinyl acetate content 28%) was 10 ± 0.5 mg/h, the “Nitroglycerin flux through ethylene vinyl acetate membrane” value ([2]; vinyl acetate content 40%) was 21 ± 0.3 mg/h and the “Rate control of nitroglycerin permeation” value ([14]; 1 mil ethylene/vinyl acetate membranes) was “the skin controls the rate of nitroglycerin permeation”. The “Improvement of nitroglycerin flux through skin over the best of previously disclosed systems” value ([14]; membranes of higher vinyl acetate content) was no more than 2 factor, the “Flux of nitroglycerin through skin and ethylene vinyl acetate membrane” value ([14]; vinyl acetate content 9%) was 30 mcg/cm^2 /hr and the “Flux of nitroglycerin through skin and ethylene vinyl acetate membrane” value ([14]; vinyl acetate content 18%) was 60 mcg/cm^2 /hr. For the same compound, the “Flux of nitroglycerin through skin and ethylene vinyl acetate membrane” value ([14]; vinyl acetate content 28%) was 66 mcg/cm^2 /hr, the “Flux of nitroglycerin through skin and ethylene vinyl acetate membrane” value ([14]; vinyl acetate content 40%) was 120 mcg/cm^2 /hr and the “Improvement of nitroglycerin flux by optimization of adhesive and membrane layers” value ([15]; 32.8% vinyl acetate membrane, peripheral versus 2 mil silicone face adhesive) was “more than a factor of two”. It also gave a Nitroglycerin flux ([15]; Membrane alone and skin, 32.8% vinyl acetate membrane, ethanol:water (85:15) reservoir) of 82 ± 26 mcg/cm^2 /hr, a Nitroglycerin flux ([15]; Membrane and adhesive (2 mil silicone face adhesive) and skin, 32.8% vinyl acetate, ethanol:water (85:15) reservoir) of 37 ± 10 mcg/cm^2 /hr and a Nitroglycerin flux ([15]; Skin alone from ethanol:water (70:30)) of 85 ± 15 mcg/cm^2 /hr. For the same compound, the Nitroglycerin flux ([15]; Skin alone without ethanol in donor) was 15 ± 7 mcg/cm^2 /hr.
